Assay results published in patent publication US20180194762A1 (Pharmacyclics LLC, priority 2017, published 2018).
pIC50: −log10 of the molar value. Where two headings read alike, the source gives them in different places.

Legend:
Format in all cases: biochemical
Btk = molecular target: T1, Btk (Homo sapiens, UniProt Q06187); assay: Btk in vitro inhibitory activity (one of Method A TR-FRET, Method B electrophoretic mobility shift, Method C radiometric filter binding)
T1 construct: purified from insect cells as a full-length construct containing a N-terminal 6X-His tag; His6 (N); made in house; host or cells: insect cells (Method C)
T1 sequence (Q06187 whole entry): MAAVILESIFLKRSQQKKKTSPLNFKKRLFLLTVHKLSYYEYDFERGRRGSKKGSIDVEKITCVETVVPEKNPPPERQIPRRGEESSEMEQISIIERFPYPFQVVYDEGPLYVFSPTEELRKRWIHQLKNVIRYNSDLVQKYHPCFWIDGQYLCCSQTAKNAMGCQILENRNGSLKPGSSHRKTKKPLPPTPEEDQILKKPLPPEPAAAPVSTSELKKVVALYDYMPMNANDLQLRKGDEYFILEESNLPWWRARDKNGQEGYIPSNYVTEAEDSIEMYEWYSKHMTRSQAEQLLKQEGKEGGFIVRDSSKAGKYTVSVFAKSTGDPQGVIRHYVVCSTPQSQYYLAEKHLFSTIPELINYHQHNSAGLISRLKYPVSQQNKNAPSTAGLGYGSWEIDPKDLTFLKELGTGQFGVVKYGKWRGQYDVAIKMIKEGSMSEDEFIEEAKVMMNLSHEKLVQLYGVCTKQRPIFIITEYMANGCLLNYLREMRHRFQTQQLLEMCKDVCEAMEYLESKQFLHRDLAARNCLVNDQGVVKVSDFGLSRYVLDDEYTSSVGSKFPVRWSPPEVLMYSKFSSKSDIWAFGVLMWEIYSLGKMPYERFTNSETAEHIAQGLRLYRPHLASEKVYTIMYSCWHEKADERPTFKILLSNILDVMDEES
How it was run: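 Method A: TR-FRET with 0.5 nM Btk at [ATP]=Km, EDTA-quenched, 665/615 nm ratio; Ki(app) converted to IC50. Method B: 1 nM full-length His6 human BTK, 1 μM FAM peptide, pH 7.5, mobility-shift product/sum ratio, 12-point 4-parameter fit. Method C: radiometric filter binding, 8 nM His-tagged BTK, 0.2 mg/mL poly-Glu-Tyr.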

TEC = molecular target: T2, TEC (Homo sapiens, UniProt P42680); assay: Inhibition of a panel of kinases (in vitro HotSpot kinase assay, 33P-ATP, 1 μM ATP); conditions: for pIC50: HotSpot kinase assay, 1 μM ATP; for TEC/Btk: ratio of TEC IC50 to Btk IC50 (selectivity)
T2 sequence (P42680 1-631): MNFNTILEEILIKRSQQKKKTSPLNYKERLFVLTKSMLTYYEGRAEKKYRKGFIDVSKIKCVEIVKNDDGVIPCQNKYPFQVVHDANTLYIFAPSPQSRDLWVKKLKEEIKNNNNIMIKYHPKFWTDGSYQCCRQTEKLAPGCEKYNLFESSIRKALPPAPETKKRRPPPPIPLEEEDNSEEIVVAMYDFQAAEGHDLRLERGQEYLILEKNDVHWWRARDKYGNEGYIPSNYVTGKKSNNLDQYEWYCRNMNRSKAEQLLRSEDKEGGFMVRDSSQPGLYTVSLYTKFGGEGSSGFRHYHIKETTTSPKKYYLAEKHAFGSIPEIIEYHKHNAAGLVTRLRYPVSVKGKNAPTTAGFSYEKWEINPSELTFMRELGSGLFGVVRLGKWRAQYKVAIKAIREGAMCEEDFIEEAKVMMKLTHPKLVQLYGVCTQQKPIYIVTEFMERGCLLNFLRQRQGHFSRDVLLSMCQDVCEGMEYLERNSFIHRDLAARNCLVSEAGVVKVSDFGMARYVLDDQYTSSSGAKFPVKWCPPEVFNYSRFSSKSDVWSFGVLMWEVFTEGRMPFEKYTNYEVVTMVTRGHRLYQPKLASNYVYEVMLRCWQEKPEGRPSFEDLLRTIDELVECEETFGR
How it was run: (§1)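 Degree of kinase inhibition is determined in vitro using isolated enzymes, a matched substrate and radiolabelled ATP (1 μM).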

panel of kinases = molecular target: T3, panel of kinases (Homo sapiens, UniProt P51813); assay: Inhibition of a panel of kinases (in vitro HotSpot kinase assay, 33P-ATP, 1 μM ATP), other kinases; conditions: BMX wild-type, read-out: BMX-WT IC50
T3 sequence (P51813 1-675): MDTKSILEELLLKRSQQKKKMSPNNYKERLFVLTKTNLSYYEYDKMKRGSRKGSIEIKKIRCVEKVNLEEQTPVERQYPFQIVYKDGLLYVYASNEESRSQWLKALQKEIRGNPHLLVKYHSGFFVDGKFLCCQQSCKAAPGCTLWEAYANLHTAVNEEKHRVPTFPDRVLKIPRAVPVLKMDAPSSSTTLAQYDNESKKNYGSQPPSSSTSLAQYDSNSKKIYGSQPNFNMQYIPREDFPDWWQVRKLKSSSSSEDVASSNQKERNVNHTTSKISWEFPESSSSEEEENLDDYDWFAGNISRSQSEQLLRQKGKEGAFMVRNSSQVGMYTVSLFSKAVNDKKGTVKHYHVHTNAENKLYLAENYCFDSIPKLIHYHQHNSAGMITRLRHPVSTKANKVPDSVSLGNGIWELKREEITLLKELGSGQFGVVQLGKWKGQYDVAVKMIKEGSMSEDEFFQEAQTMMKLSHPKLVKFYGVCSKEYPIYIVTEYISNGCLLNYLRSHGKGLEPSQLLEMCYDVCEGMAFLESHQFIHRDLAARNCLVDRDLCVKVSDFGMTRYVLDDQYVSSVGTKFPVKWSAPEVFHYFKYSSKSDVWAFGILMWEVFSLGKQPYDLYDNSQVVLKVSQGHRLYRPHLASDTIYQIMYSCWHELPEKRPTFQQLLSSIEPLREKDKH
How it was run: as §1

[1] = method is one of A, B or C, not stated which, read-out: IC50 values against Btk
[2] = wild-type Btk, read-out: Btk-WT IC50

Compound CC(C)(C)c1noc(C(=O)NCc2ccc(-c3ccnc4[nH]nc(N[C@@H]5CCNC5)c34)cc2F)n1 [Example 79, 3-tert-butyl-N-{[2-fluoro-4-(3-{[(3R)-pyrrolidin-3-yl]amino}-1H-pyrazolo[3,4-b]pyridin-4-yl)phenyl]methyl}-1,2,4-oxadiazole-5-carboxamide] has a pIC50 (Btk; [1]) greater than 8.00, a pIC50 (Btk; [2]) of 8.20 and a pIC50 (TEC) of 5.76. It also gave a TEC/Btk (TEC) of 276 and a pIC50 (panel of kinases) of 5.75.
Work on C=CC(=O)N1CC[C@@H](Nc2n[nH]c3nccc(-c4ccc(CNC(=O)c5cnn(C(C)(C)C)c5)c(F)c4)c23)C1 [Example 80, 1-tert-butyl-N-{[2-fluoro-4-(3-{[(3R)-1-(prop-2-enoyl)pyrrolidin-3-yl]amino}-1H-pyrazolo[3,4-b]pyridin-4-yl)phenyl]methyl}-1H-pyrazole-4-carboxamide] yielded a pIC50 (Btk; [1]) greater than 8.00, a pIC50 (Btk; [2]) of 9.89 and a pIC50 (TEC) of 7.24. For the same compound, the TEC/Btk (TEC) was 440 and the pIC50 (panel of kinases) was 7.12.
C=CC(=O)N1CC[C@@H](Nc2n[nH]c3nccc(-c4ccc(CNC(=O)c5nnc(C(C)(C)C)o5)c(F)c4)c23)C1 [Example 81, 5-tert-butyl-N-{[2-fluoro-4-(3-{[(3R)-1-(prop-2-enoyl)pyrrolidin-3-yl]amino}-1H-pyrazolo[3,4-b]pyridin-4-yl)phenyl]methyl}-1,3,4-oxadiazole-2-carboxamide] showed a pIC50 (Btk; [1]) greater than 8.00, a pIC50 (Btk; [2]) of 9.64 and a pIC50 (TEC) of 6.88. It also gave a TEC/Btk (TEC) of 577 and a pIC50 (panel of kinases) of 7.05.
C=CC(=O)N1CC[C@@H](Nc2n[nH]c3nccc(-c4ccc(CNC(=O)c5nc(C(C)(C)C)n[nH]5)c(F)c4)c23)C1 [Example 82, 3-tert-butyl-N-{[2-fluoro-4-(3-{[(3R)-1-(prop-2-enoyl)pyrrolidin-3-yl]amino}-1H-pyrazolo[3,4-b]pyridin-4-yl)phenyl]methyl}-1H-1,2,4-triazole-5-carboxamide] gave a pIC50 (Btk; [2]) of 7.51, a pIC50 (TEC) of 6.45 and a TEC/Btk (TEC) of 12. The pIC50 (panel of kinases) was 6.95.
C=CC(=O)N1CC[C@@H](Nc2n[nH]c3nccc(-c4ccc(CNC(=O)c5nc(C(C)(C)C)no5)c(F)c4)c23)C1 [Example 83, 3-tert-butyl-N-{[2-fluoro-4-(3-{[(3R)-1-(prop-2-enoyl)pyrrolidin-3-yl]amino}-1H-pyrazolo[3,4-b]pyridin-4-yl)phenyl]methyl}-1,2,4-oxadiazole-5-carboxamide] gave a pIC50 (Btk; [1]) greater than 8.00, a pIC50 (Btk; [2]) of 10.25 and a pIC50 (TEC) of 7.55. The TEC/Btk (TEC) was 493 and the pIC50 (panel of kinases) was 7.28.
In the case of C=CC(=O)N1CC[C@@H](Nc2n[nH]c3nccc(-c4ccc(CNC(=O)c5noc(CC)n5)c(F)c4)c23)C1 [Example 84, 5-ethyl-N-{[2-fluoro-4-(3-{[(3R)-1-(prop-2-enoyl)pyrrolidin-3-yl]amino}-1H-pyrazolo[3,4-b]pyridin-4-yl)phenyl]methyl}-1,2,4-oxadiazole-3-carboxamide], the pIC50 (Btk; [1]) was greater than 8.00, the pIC50 (Btk; [2]) was 8.11 and the pIC50 (TEC) was 6.44. It also gave a TEC/Btk (TEC) of 46 and a pIC50 (panel of kinases) of 7.06.
Compound C=CC(=O)N1CCC[C@@H](Nc2n[nH]c3nccc(-c4ccc(CNC(=O)c5noc(C(C)(C)C)n5)c(F)c4)c23)C1 [Example 85, 5-tert-butyl-N-{[2-fluoro-4-(3-{[(3R)-1-(prop-2-enoyl)piperidin-3-yl]amino}-1H-pyrazolo[3,4-b]pyridin-4-yl)phenyl]methyl}-1,2,4-oxadiazole-3-carboxamide] has a pIC50 (Btk; [1]) greater than 8.00, a pIC50 (Btk; [2]) of 9.72 and a pIC50 (TEC) of 6.96. For the same compound, the TEC/Btk (TEC) was 579 and the pIC50 (panel of kinases) was 6.94.
Work on C=CC(=O)N1CC[C@@H](Nc2n[nH]c3nccc(-c4ccc(C5(NC(=O)c6nc(C(C)(C)C)no6)CC5)cc4)c23)C1 [Example 86, 3-tert-butyl-N-{1-[4-(3-{[(3R)-1-(prop-2-enoyl)pyrrolidin-3-yl]amino}-1H-pyrazolo[3,4-b]pyridin-4-yl)phenyl]cyclopropyl}-1,2,4-oxadiazole-5-carboxamide] yielded a pIC50 (Btk; [1]) greater than 8.00, a pIC50 (Btk; [2]) of 9.62 and a pIC50 (TEC) of 6.67. It also gave a TEC/Btk (TEC) of 880 and a pIC50 (panel of kinases) of 6.66.
C=CC(=O)N1CC[C@@H](Nc2n[nH]c3nccc(-c4ccc(CCNC(=O)c5noc(C(C)(C)C)n5)c(F)c4)c23)C1 [Example 87, 5-tert-butyl-N-{2-[2-fluoro-4-(3-{[(3R)-1-(prop-2-enoyl)pyrrolidin-3-yl]amino}-1H-pyrazolo[3,4-b]pyridin-4-yl)phenyl]ethyl}-1,2,4-oxadiazole-3-carboxamide] showed a pIC50 (Btk; [1]) greater than 8.00, a pIC50 (Btk; [2]) of 8.84 and a pIC50 (TEC) of 6.16. The TEC/Btk (TEC) was 479 and the pIC50 (panel of kinases) was 6.56.
Compound C=CC(=O)N1CC[C@@H](Nc2n[nH]c3nccc(-c4cc(F)cc(CNC(=O)c5noc(C(C)(C)C)n5)c4)c23)C1 [Example 88, 5-tert-butyl-N-{[3-fluoro-5-(3-{[(3R)-1-(prop-2-enoyl)pyrrolidin-3-yl]amino}-1H-pyrazolo[3,4-b]pyridin-4-yl)phenyl]methyl}-1,2,4-oxadiazole-3-carboxamide] has a pIC50 (Btk; [2]) of 6.54, a pIC50 (TEC) of 5.62 and a TEC/Btk (TEC) of 8. It also gave a pIC50 (panel of kinases) of 6.15.
C=CC(=O)N1CC[C@@H](Nc2n[nH]c3nccc(-c4cc(F)cc(CNC(=O)c5ccc(C(C)(C)C)cc5)c4)c23)C1 [Example 89, 4-tert-butyl-N-{[3-fluoro-5-(3-{[(3R)-1-(prop-2-enoyl)pyrrolidin-3-yl]amino}-1H-pyrazolo[3,4-b]pyridin-4-yl)phenyl]methyl}benzamide] gave a pIC50 (Btk; [2]) of less than 5.00, a pIC50 (TEC) of 5.48 and a TEC/Btk (TEC) greater than 100. It also gave a pIC50 (panel of kinases) of 6.29.
Compound CC(C)(C)c1nc(C(=O)NCc2ccc(-c3ccnc4[nH]nc(N[C@@H]5CCCN(C=O)C5)c34)cc2F)no1 [Example 90, 5-tert-butyl-N-{[2-fluoro-4-(3-{[(3R)-1-formylpiperidin-3-yl]amino}-1H-pyrazolo[3,4-b]pyridin-4-yl)phenyl]methyl}-1,2,4-oxadiazole-3-carboxamide] has a pIC50 (Btk; [1]) greater than 8.00, a pIC50 (Btk; [2]) of 8.03 and a pIC50 (TEC) of 5.65. For the same compound, the TEC/Btk (TEC) was 238 and the pIC50 (panel of kinases) was 5.58.
CC(=O)N1CC[C@H](Nc2n[nH]c3nccc(-c4ccc(CNC(=O)c5noc(C(C)(C)C)n5)c(F)c4)c23)C1 [Example 92, N-{[4-(3-{[(3S)-1-acetylpyrrolidin-3-yl]amino}-1H-pyrazolo[3,4-b]pyridin-4-yl)-2-fluorophenyl]methyl}-5-tert-butyl-1,2,4-oxadiazole-3-carboxamide] was tested, and the pIC50 (Btk; [2]) was 7.86, the pIC50 (TEC) was 5.16 and the TEC/Btk (TEC) was 505. The pIC50 (panel of kinases) was 5.12.
CC(C)(C)c1nc(C(=O)NCc2ccc(-c3ccnc4[nH]nc(N[C@H]5CCN(C=O)C5)c34)cc2F)no1 [Example 93, 5-tert-butyl-N-{[2-fluoro-4-(3-{[(3S)-1-formylpyrrolidin-3-yl]amino}-1H-pyrazolo[3,4-b]pyridin-4-yl)phenyl]methyl}-1,2,4-oxadiazole-3-carboxamide] showed a pIC50 (Btk; [2]) of 7.93, a pIC50 (TEC) of 5.42 and a TEC/Btk (TEC) of 322. The pIC50 (panel of kinases) was 5.48.
In the case of CC1(C(=O)N2CC[C@H](Nc3n[nH]c4nccc(-c5ccc(CNC(=O)c6noc(C(C)(C)C)n6)c(F)c5)c34)C2)COC1 [Example 94, 5-tert-butyl-N-{[2-fluoro-4-(3-{[(3S)-1-(3-methyloxetane-3-carbonyl)pyrrolidin-3-yl]amino}-1H-pyrazolo[3,4-b]pyridin-4-yl)phenyl]methyl}-1,2,4-oxadiazole-3-carboxamide], the pIC50 (Btk; [2]) was 7.60, the pIC50 (TEC) was less than 5.00 and the TEC/Btk (TEC) was greater than 100. The pIC50 (panel of kinases) was less than 5.00.
